From patent US20200247794A1, “PHARMACOPHORES, COMPOUNDS AND METHODS HAVING APPLICATION IN THE TREATMENT OF CANCER THROUGH INHIBITION OF CYP17A1 AND CYP19A1” (MANGOSUTHU UNIVERSITY OF TECHNOLOGY, priority 2015, published 2020)
Like-named read-outs stand apart in the source and are kept apart here.

Legend:
CYP17A1 [1] = target: T1, CYP17A1 (Homo sapiens, UniProt P05093); conditions: cited from earlier work; for pIC50: −log IC50 (M), converted from literature IC50; for IC50: literature value, no unit in the table, nM
T1 sequence (P05093 1-508): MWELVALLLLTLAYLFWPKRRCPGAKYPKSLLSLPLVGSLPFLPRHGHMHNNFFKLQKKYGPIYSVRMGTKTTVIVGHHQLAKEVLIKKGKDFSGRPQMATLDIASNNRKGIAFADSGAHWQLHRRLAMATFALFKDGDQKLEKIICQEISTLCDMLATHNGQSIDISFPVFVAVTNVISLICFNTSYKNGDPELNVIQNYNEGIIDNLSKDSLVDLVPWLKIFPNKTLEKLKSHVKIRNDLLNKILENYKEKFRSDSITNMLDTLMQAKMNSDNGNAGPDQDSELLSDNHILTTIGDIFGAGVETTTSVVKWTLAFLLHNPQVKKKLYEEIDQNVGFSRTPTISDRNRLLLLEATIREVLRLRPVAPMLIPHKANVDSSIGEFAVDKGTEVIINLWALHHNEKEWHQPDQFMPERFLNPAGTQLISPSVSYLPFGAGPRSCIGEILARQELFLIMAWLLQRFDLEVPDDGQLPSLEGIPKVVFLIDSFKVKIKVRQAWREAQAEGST

CYP17A1 [2] = target: T1, CYP17A1; test: CYP17A1 inhibition (CYP17A1 bactosomes, progesterone substrate, LC-MS/MS); assay type: biochemical; parameters: purchased Cypex, Dundee, UK; host or cells: bacterial membranes (bactosomes); conditions: for inhibitory potency of CYP17A1 (in words): summary of Table 2; for IC50: 20 pmol/ml bactosomes, 0.1 μM progesterone, 50 μM to 50 nM
Description: CYP17A1 inhibition was measured using 20 pmol/ml CYP17A1 bactosomes (Cypex, Dundee, UK) and 0.1 μM progesterone as a substrate and 1 mM NADPH in 50 mM potassium phosphate buffer pH 7.4 containing 5 mM magnesium chloride. Inhibitors were dissolved in DMSO and serially diluted in seven ½ log steps, final concentrations ranging from 50 μM to 50 nM. Reaction volume was 100 μl and final DMSO concentration was 1% (v/v). Reactions were started by the addition of NADPH and incubated at 37° C. for 20 minutes with shaking at 1800 rpm on a Bioshake IQ (Q-Instruments, Jena, Germany). Reactions were terminated by the addition of 200 μl methanol containing 1 μM tolbutamide as an internal standard.

CYP1A2 = target: T2, CYP1A2 (Homo sapiens, UniProt P05177); test: CYP inhibition, 5 CYP bactosome mix: CYP1A2 (tacrine); assay type: in vitro ADME; conditions: tacrine 0.5 μM
T2 construct: purchased Cypex, Dundee CYP/XG001, Batch XG001001; host or cells: E. coli
T2 sequence (P05177 1-516): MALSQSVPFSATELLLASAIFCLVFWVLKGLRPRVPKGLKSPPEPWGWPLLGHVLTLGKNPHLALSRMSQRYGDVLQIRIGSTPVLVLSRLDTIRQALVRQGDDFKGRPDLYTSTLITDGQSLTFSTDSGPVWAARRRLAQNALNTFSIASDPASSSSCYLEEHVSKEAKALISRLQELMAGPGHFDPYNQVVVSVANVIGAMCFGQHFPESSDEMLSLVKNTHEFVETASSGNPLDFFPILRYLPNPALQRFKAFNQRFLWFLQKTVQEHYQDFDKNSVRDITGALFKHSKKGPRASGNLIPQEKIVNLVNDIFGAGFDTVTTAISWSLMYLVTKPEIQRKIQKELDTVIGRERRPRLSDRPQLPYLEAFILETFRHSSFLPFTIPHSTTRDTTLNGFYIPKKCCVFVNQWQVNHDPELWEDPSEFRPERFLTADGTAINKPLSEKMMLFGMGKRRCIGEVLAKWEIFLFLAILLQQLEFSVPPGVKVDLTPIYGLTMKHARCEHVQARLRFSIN
Description: (§1) CYP Inhibition Against Major 5 Human Liver CYPs in E. coli CYPEX Membranes
The final DMSO concentration was 1%.

CYP2C9 = target: T3, CYP2C9 (Homo sapiens, UniProt P11712); test: CYP inhibition, 5 CYP bactosome mix: CYP2C9 (diclofenac); assay type: in vitro ADME; conditions: diclofenac 2 μM
T3 construct: purchased Cypex, Dundee CYP/XG001, Batch XG001001; host or cells: E. coli
Description: as §1
The final DMSO concentration was 1%.

CYP2C19 = target: T4, CYP2C19 (Homo sapiens, UniProt P33261); test: CYP inhibition, 5 CYP bactosome mix: CYP2C19 ((S)-mephenytoin); assay type: in vitro ADME; conditions: (S)-mephenytoin 40 μM
T4 construct: purchased Cypex, Dundee CYP/XG001, Batch XG001001; host or cells: E. coli
Description: as §1
The final DMSO concentration was 1%.

CYP2D6 = target: T5, CYP2D6 (Homo sapiens, UniProt P10635); test: CYP inhibition, 5 CYP bactosome mix: CYP2D6 (bufuralol); assay type: in vitro ADME; conditions: bufuralol 10 μM
T5 construct: purchased Cypex, Dundee CYP/XG001, Batch XG001001; host or cells: E. coli
Description: as §1
The final DMSO concentration was 1%.

CYP3A4 = target: T6, CYP3A4 (Homo sapiens, UniProt P08684); test: CYP inhibition, 5 CYP bactosome mix: CYP3A4 (midazolam); assay type: in vitro ADME; conditions: midazolam 2.5 μM
T6 construct: purchased Cypex, Dundee CYP/XG001, Batch XG001001; host or cells: E. coli
Description: as §1
The final DMSO concentration was 1%.

[3] = tested on: CYP1A2, CYP2C9, CYP2C19, CYP2D6, and CYP3A4; test: CYP inhibition against major 5 human liver CYPs (panel, summary in words); assay type: in vitro ADME; conditions: drug-drug interaction remark
CYP19A1 = target: T7, CYP19A1 (Homo sapiens, UniProt P11511); test: CYP19A1 inhibition (CYP19/MFC High Throughput Inhibitor Screen Kit, fluorescence); assay type: biochemical
T7 sequence (P11511 1-503): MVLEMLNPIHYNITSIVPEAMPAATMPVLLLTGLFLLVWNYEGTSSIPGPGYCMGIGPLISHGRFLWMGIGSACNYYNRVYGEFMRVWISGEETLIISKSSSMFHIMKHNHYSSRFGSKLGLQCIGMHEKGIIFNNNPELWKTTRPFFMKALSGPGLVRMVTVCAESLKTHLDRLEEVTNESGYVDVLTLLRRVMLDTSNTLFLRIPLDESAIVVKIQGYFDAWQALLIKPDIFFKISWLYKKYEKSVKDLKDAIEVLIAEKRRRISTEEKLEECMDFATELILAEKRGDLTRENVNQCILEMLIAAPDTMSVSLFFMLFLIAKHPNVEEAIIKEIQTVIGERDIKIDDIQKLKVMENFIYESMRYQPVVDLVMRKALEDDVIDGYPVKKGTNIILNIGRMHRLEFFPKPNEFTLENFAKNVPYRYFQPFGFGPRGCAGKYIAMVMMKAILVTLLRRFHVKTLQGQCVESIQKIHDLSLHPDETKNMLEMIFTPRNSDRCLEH
Description: Test compounds and control inhibitors were prepared as stocks in either Acetonitrile or DMSO from the solid compound. Compounds were serially diluted in ½ log steps in the same solvent.
CYP19A1 inhibition experiments were performed using the CYP19/MFC High Throughput Inhibitor Screen Kit (Corning).
CYP19A1 reactions were performed in black 96 well-plates (Greiner) according to the manufacturer's instructions. […] Final organic solvent concentrations were either 4% (v/v) acetonitrile or 0.5% (v/v) Dimethyl sulfoxide. The plates were covered with self-adhesive film lids and incubated for 10 minutes at 37° C. Reactions were terminated by the addition of 75 μl Stop Solution (100 mM Tris base in acetonitrile: MilliQ water (80:20).
Fluorescence of 7-Hydroxy-4-trifluoromethylcoumarin (HFC) was measured on a SpectraMax® i3x (Molecular Devices) using 409 nm and 530 nm as excitation and emission wavelengths, respectively.
The CYP activities for each test compound/positive control inhibitor at each concentration were converted to % of control activity (CA). The LC-MS/MS peak responses (CYP metabolite peak area/internal standard peak area) for each test compound or positive control inhibitor were used and the response for each sample was expressed as a percentage of an uninhibited control (DMSO incubation). The data were then expressed as (log(CA/100-CA) and used to generate a pseudo-Hill plot, the slope and y axis intercept are used to calculate the IC50-value according to the following equation.

[4] = 7.5 pmol/ml CYP19A1, 25 μM MFC, top concentration 50 μM (acetonitrile) or 25 μM (DMSO), read-out: CYP19A1 IC50

T5 sequence (P10635 whole entry): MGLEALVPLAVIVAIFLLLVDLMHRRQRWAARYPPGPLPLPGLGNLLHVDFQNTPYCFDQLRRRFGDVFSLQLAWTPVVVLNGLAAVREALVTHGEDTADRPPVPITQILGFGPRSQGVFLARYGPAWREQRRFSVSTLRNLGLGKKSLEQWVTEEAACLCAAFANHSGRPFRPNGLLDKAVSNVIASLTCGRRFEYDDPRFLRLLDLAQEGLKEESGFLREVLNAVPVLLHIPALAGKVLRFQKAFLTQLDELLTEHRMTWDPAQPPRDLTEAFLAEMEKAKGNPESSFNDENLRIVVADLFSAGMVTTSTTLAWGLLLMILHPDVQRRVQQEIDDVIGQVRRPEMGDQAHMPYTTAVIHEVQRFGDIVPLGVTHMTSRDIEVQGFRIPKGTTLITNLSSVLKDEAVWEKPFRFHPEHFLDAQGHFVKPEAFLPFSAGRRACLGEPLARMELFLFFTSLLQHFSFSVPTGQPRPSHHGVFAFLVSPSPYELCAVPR
T4 sequence (P33261 whole entry): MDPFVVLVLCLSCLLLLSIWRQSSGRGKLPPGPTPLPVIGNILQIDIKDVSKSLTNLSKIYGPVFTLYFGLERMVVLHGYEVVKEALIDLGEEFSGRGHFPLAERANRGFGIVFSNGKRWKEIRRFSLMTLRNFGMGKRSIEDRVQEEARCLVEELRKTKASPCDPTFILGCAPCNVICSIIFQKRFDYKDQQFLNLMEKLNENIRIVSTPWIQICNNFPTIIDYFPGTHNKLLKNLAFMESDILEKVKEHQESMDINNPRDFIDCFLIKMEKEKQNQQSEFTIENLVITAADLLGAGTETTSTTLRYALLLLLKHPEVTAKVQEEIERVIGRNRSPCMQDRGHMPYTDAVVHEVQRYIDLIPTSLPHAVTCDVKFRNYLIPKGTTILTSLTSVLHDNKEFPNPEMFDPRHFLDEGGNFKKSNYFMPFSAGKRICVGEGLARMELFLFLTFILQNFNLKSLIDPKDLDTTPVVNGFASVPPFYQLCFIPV
T6 sequence (P08684 whole entry): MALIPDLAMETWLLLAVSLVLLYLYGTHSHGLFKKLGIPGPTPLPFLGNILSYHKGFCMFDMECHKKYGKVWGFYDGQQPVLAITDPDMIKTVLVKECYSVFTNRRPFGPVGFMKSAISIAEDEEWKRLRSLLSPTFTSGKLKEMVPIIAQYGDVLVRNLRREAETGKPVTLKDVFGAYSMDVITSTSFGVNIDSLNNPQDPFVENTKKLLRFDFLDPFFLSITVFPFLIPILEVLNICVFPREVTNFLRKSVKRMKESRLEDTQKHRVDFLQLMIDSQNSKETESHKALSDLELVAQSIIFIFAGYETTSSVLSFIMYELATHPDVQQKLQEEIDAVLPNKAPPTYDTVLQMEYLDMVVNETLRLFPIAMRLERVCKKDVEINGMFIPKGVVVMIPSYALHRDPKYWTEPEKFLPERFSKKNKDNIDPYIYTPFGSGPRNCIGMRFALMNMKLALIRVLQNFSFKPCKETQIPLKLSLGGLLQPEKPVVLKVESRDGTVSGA
T3 sequence (P11712 whole entry): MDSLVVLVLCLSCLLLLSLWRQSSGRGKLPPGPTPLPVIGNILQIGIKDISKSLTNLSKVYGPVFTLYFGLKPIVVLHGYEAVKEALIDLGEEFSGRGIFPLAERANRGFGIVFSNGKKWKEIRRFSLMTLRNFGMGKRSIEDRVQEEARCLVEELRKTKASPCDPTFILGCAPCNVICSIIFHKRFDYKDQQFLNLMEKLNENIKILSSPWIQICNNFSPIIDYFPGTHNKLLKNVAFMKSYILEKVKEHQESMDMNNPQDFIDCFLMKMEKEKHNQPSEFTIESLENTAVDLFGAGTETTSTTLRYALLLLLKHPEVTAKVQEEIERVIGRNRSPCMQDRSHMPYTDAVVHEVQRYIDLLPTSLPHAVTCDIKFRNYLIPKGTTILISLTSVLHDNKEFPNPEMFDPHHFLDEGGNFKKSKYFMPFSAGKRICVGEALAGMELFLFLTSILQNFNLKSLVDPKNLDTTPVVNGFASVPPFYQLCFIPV

Compound	pIC50 (CYP17A1 [1])	inhibitory potency of CYP17A1 (in words) (CYP17A1 [2])	IC50 (CYP17A1 [1]) [nM]	IC50 (CYP1A2) [µM]	IC50 (CYP2C9) [µM]	IC50 (CYP2C19) [µM]	IC50 (CYP2D6) [µM]	IC50 (CYP3A4) [µM]	inhibition of metabolic CYP450 isoforms (in words) [3]	IC50 (CYP17A1 [2]) [µM]	IC50 (CYP19A1) [µM]	IC50 (CYP19A1; [4]) [µM]
O=C(NC1CC1)c1ccc2cc(C3(O)CCn4cncc43)ccc2c1 (racemic) [5bx [7]]	6.600											
CCCC(=O)Nc1ccc(C(=O)C(C)OC(=O)c2n[nH]c3ccccc23)cc1 (racemic) [Compound 6, 1-(4-butanamidophenyl)-1-oxopropan-2-yl-1H-indazole-3-carboxylate]		micromolar levels										
CNC(=O)c1ccc2cc(C(O)(c3cnc[nH]3)C(C)C)ccc2c1 (stereo not shown) [1 [11], 6-[1-Hydroxy-1-isopropyl(1H-imidazol-5-yl)methyl]-Nmethylnaphthalene-2-carboxamide]	7.800											
Brc1ccc(Cc2ccncc2)cc1 [3g [11]]	6.400											
COc1ccc(-c2ccc(Cc3ccncc3)cc2)cc1OC [9a [9], 4-[(3′,4′-Dimethoxybiphenyl-4-yl)methyl]pyridine]			52									
Cl.Fc1ccc(-c2ccc3c(c2)CCC3c2cccnc2)cc1 (stereo not shown) [15 [13]]	4.700											
CCc1ccc(NC(=O)c2cc(C(=O)c3cc(OC)ccc3O)coc2=N)cc1 [Compound 1, N-(4-ethylphenyl)-5-(2-hydroxy-5-methoxybenzoyl)-2-imino-2H-pyran-3-carboxamide]		micromolar levels		27.9	6.1	14.9	36.3	14.6	inhibit various CYP450 isoforms	> 50		
O=C(CSc1nnc(-c2c[nH]c3ccccc23)n1Cc1ccco1)NCc1ccccc1Cl [Compound 2, N-[(2-chlorophenyl)methyl]-2-({4-[(furan-2-yl)methyl]-5-(1H-indol-3-yl)-4H-1,2,4-triazol-3-yl}sulfanyl)acetamide]		micromolar levels		4.5	1.8	3.5	8.1	1.1	inhibit various CYP450 isoforms	> 50		
Cc1cccc(C(=O)OCCOc2ccc(S(N)(=O)=O)cc2)c1N [Compound 4, 2-(4-sulfamoylphenoxy)ethyl 2-amino-3-methylbenzoate]					16	1.5		3.3	inhibit various CYP450 isoforms		43.5	
COC(C)C(=O)Nc1cccc(NC(C(N)=O)c2ccccc2)c1 (stereo not shown) [Compound 5, N-(3-{[carbamoyl(phenyl)methyl]amino}phenyl)-2-methoxypropanamide]				> 50	> 50	> 50	> 50	> 50				> 50
O=C1COc2cc(NCc3cccc(NC(=O)c4ccccc4Cl)c3)c(Cl)cc2N1 [Compound 7, 2-chloro-N-(3-{[(6-chloro-3-oxo-3,4-dihydro-2H-1,4-benzoxazin-7-yl)amino]methyl}phenyl)benzamide]		micromolar levels		> 50		> 50	> 50	0.7				> 25
O=C1COc2cc(NCc3cccc(C(=O)Nc4cccnc4)c3)c(O)cc2N1 [Compound 8, 3-{[(6-hydroxy-3-oxo-3,4-dihydro-2H-1,4-benzoxazin-7-yl)amino]methyl}-N-(pyridin-3-yl)benzamide]				2.7	7.9	44.6	> 50	2.8				5.9
O=C(Nc1ccccc1O)c1ccc(Oc2cccc(C(=O)Nc3ccccc3O)c2)cc1 [Compound 9, N-(2-hydroxyphenyl)-4-{3-[(2-hydroxyphenyl)carbamoyl]phenoxy}benzamide]		micromolar levels		> 50	> 50	> 50	> 50	> 50		> 50		
O=C1COc2cc(NCc3cccc(C(=O)Nc4cccnc4)c3)ccc2N1 [Compound 10, 3-{[(3-oxo-3,4-dihydro-2H-1,4-benzoxazin-7-yl)amino]methyl}-N-(pyridin-3-yl)benzamide]		micromolar levels		2.1	> 50	> 50	> 50	6.6		> 50		5.7
O=C1COc2cc(NCc3cccc(C(=O)Nc4ccccc4O)c3)ccc2N1 [Compound 11, N-(2-hydroxyphenyl)-3-{[(3-oxo-3,4-dihydro-2H-1,4-benzoxazin-7-yl)amino]methyl}benzamide]				26.9	4	7.6	2.7	8.3	inhibit various CYP450 isoforms			8.6
O=C1COc2cc(NCc3cccc(C(=O)Nc4cccnc4)c3)c(Cl)cc2N1 [Compound 13, 3-{[(6-chloro-3-oxo-3,4-dihydro-2H-1,4-benzoxazin-7-yl)amino]methyl}-N-(pyridin-3-yl)benzamide]				0.6		> 50	> 50	1.1	inhibit various CYP450 isoforms	> 50		14.5
COc1cc2ccc([C@](O)(c3c[nH]cn3)C(C)C)cc2cc1OC [TAK700, [(1S)-1-(6,7-dimethoxy-2-naphthyl)-1-(1H-imidazol-4-yl)-2-methylpropan-1-ol]]	7.550		28									
